Experimental findings from PubChem BioAssay (NCI) are described below.

Some test systems named below: HS 578T breast; MDA-N; XF 498 CNS; DMS 273 small cell lung; LXFL 529 NSCLC; DMS 114 small cell lung; M19-MEL melanoma; KM20L2 colon.
Holding throughout (experiment): DTP human tumour cell line panel, 48 h

Several values for one entry are separate records, joined by “and”; a condition that tells them apart may be missing. Identical values can stand only once.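 Protocol summary: plate cells (96-well), add compound at 5 concentrations, incubate 48 h, interpolate endpoints linearly. GI50: concentration for 50% inhibition of growth. At the TGI there is no net growth.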

On to `COc1ccc(Cl)cc1Nc1nc(C(F)(F)F)ccc1C(=O)N/N=C/c1ccc(Cl)cc1`, for which, in the experiment with HS 578T breast, the GI50 – broadly, the concentration giving 50% growth inhibition – is 22.3 µM and the TGI – broadly, the concentration at which net growth stops – is over 100 µM.
With `O=C1OC(c2ccccc2)=N/C1=C\c1ccc(N(CCCl)CCCl)cc1`, the TGI in the experiment on HS 578T breast and in the experiment on MDA-N was over 100 µM each time.
As to `O=C1COc2c(CCNCCN(C(=O)CCNCCc3ccc(Cl)c(Cl)c3)C3CCCCC3)ccc(O)c2N1`, in the experiment on HS 578T breast, the GI50 is 15.4 µM and the TGI was 34.9 µM.
For `COc1ccc(C[C@H](N)C(=O)N[C@@H]2[C@@H](CO)OC(n3cnc4c(N(C)C)ncnc43)[C@@H]2O)cc1` (stereo not given in full) the same measures were 0.304 µM and 2.11 µM.
The like results for `COc1cc(-c2nn(-c3cccc(NC(=O)c4cccc(C(F)(F)F)c4)c3)cc2-c2ccncc2)ccc1Cl` were, in that order, 1.07 µM and over 50 µM.
Turning to `Oc1ccc(/C=N/Nc2nnc(N/N=C/c3ccc(O)cc3O)c3ccccc23)c(O)c1`, in the experiment on HS 578T breast, the GI50 was 0.5 µM and the TGI was found to be 0.954 µM. For the same molecule, the total growth inhibition concentration (TGI) with MDA-N came to 0.93 µM.
`O=C1NC2(CCCCC2)C2=C1CCCCC2`: the TGI in the experiment with XF 498 CNS, in the experiment on DMS 273 small cell lung, in the experiment with LXFL 529 NSCLC, with DMS 114 small cell lung and in the experiment on M19-MEL melanoma was over 100 µM each time.
For the molecule `O=C(Nc1cccc(C(F)(F)F)c1)Nc1ccc(OCc2nnc(-c3ccccc3)o2)c(F)c1`, in the experiment on HS 578T breast, the GI50 is 2.5 µM and the TGI turned out to be 14.7 µM.
For `OCCn1c(-c2ccncc2)c(-c2ccc(F)cc2)c2ncccc21` the same measures were over 25 µM and over 25 µM.
Turning to `Cc1c2cc[n+](C)cc2c(C)c2c1[nH]c1ccc(Oc3ccccc3)cc12`, the GI50 is 1.15 µM with DMS 273 small cell lung; 2.56 µM and 3.23 µM in the experiment on M19-MEL melanoma. For the same molecule, the total growth inhibition concentration (TGI) in the experiment on DMS 273 small cell lung was over 100 µM; in the experiment with LXFL 529 NSCLC, 6.13 µM and 6.82 µM; in the experiment on KM20L2 colon it was 23 µM and > 52.3 µM; in the experiment on M19-MEL melanoma it was 24.5 µM and > 100 µM.
With `Cn1ncc2c(c1=O)Nc1ccccc1S2(=O)=O`, the TGI is over 100 µM with DMS 273 small cell lung; over 100 µM in the experiment with LXFL 529 NSCLC; 40.9 µM in the experiment on DMS 114 small cell lung; over 100 µM in the experiment on KM20L2 colon; over 100 µM in the experiment with M19-MEL melanoma.
For the molecule `COc1cccc2c(Nc3ccc(C(=O)NCCN4CCNCC4)cc3)cc(-c3ccccc3)nc12`, in the experiment on HS 578T breast, the GI50 was 46.9 µM and the TGI is over 100 µM.
Regarding `CCCCc1c2c(nc3c1CC/C(=C\c1ccccc1)C3=O)CCCC2`, the TGI with DMS 273 small cell lung was determined as 8.26 µM; in the experiment with LXFL 529 NSCLC, 4.16 µM; in the experiment with DMS 114 small cell lung it was 27.5 µM; with KM20L2 colon, 12.7 µM; in the experiment on M19-MEL melanoma, 16.9 µM.
As to `c1csc(-c2[nH]nc3c2CCc2ccccc2-3)c1`, in the experiment on HS 578T breast, the GI50 was 14.5 µM and the concentration for total growth inhibition (TGI) stood at 55.4 µM.
Turning to `O=NNc1nc(-c2ccccn2)nc2ccccc12`, the TGI in the experiment with HS 578T breast and with MDA-N was over 100 µM throughout.
Regarding `CCc1c[nH]c2ncnc(N3CC[C@](N)(CNC(=O)c4ccc(F)cc4F)C3)c12`, in the experiment on HS 578T breast, the GI50 is 0.513 µM and the concentration for total growth inhibition (TGI) is 24.3 µM.
For `CCNc1nc(-c2ccc(Cl)c(OC)c2)c(-c2ccnc(NCCNS(=O)(=O)c3ccc(Cl)cc3)n2)s1` the same measures were 3.98 µM and 87.2 µM.
`O=[N+]([O-])c1cccc(C2=NOC3CCCC23)c1` (stereo not given): the TGI with DMS 273 small cell lung, with LXFL 529 NSCLC, in the experiment with DMS 114 small cell lung and in the experiment with M19-MEL melanoma was over 100 µM in each case.
On to `Cc1cccc(Cc2cnc(NC(=O)CCCOc3ccc(Cl)cc3)s2)c1`, for which, in the experiment on HS 578T breast, the GI50 was 5.32 µM and the TGI was over 100 µM.
For `Cn1c(=O)c(Oc2ccc(F)cc2F)cc2cnc(NC3CCC(O)CC3)nc21` (stereo not given) the same measures were over 25 µM and over 25 µM.
Regarding `COC(=O)c1ccccc1NCc1cc(O)ccc1O`, the TGI in the experiment on XF 498 CNS was 33.1 µM; in the experiment with DMS 273 small cell lung, over 100 µM; with HS 578T breast, 61.5 µM; in the experiment with LXFL 529 NSCLC it was 32.9 µM; in the experiment on MDA-N it was 31.8 µM; in the experiment on KM20L2 colon, over 100 µM. Besides, the TGI with M19-MEL melanoma stood at 31.7 µM.
With `COC(=O)/C(=C/c1ccc(OC)cc1)c1cc(OC)c(OC)c(OC)c1`, the TGI was 83.7 µM with XF 498 CNS; over 100 µM in the experiment with DMS 273 small cell lung; 5.69 µM with HS 578T breast; over 100 µM with LXFL 529 NSCLC; over 23.3 µM in the experiment with DMS 114 small cell lung; 0.43 µM with MDA-N. Besides, the TGI in the experiment with M19-MEL melanoma was over 100 µM.
Take `ClCc1ccc(Cn2cnc3nc(Cl)nc(Cl)c32)cc1`: in the experiment with HS 578T breast, the GI50 is 19.2 µM and the TGI was 44.8 µM.
Consider `CC(C)(CCc1nc2ccccc2[nH]1)C(=O)O`, for which the TGI with HS 578T breast and with MDA-N was over 100 µM in each case.
`O=C1C(=O)c2c(ccc3ccccc23)-c2ccccc21`: in the experiment with HS 578T breast, the GI50 is 2.05 µM and the TGI was found to be 6 µM.
Regarding `C=CCCC1(CCP(=O)(c2ccccc2)c2ccccc2)OCCO1`, the TGI in the experiment on HS 578T breast and with MDA-N was over 100 µM in each case.
`O=[N+]([O-])C1(CO)COC(CCc2ccccc2)OC1` (stereo not given): the TGI in the experiment on XF 498 CNS, in the experiment on LXFL 529 NSCLC, in the experiment on KM20L2 colon and in the experiment with M19-MEL melanoma was over 100 µM each time.
As for `COC(=O)CCSC(=O)Nc1ccccc1Cl`, the TGI with DMS 273 small cell lung, with LXFL 529 NSCLC, in the experiment on DMS 114 small cell lung and in the experiment on KM20L2 colon was over 100 µM each time.
Regarding `COc1ccc(-c2ccc(/C=N/n3c(COc4ccc(Cl)c(C)c4)nn(CN4CCOCC4)c3=S)o2)c([N+](=O)[O-])c1`, in the experiment with HS 578T breast, the GI50 was 37.8 µM and the TGI is over 100 µM.
The like results for `Clc1ccc(N=CNc2ccc(-c3nc4ccccc4[nH]3)cc2)cc1` were, in that order, 91.9 µM and over 100 µM.
